In patent US11547663B2, “Unit aerosol doses for anticoagulation” (InCarda Therapeutics, Inc., priority 2015, dated 2023):
Read-outs that look alike come from different tables or passages of the source.

Experiments:
[1] = Dog study summary: effect of inhaled anticoagulant on tested biomarkers; type: in vivo; settings: inhaled (IT)
Procedure: (§1) To assess the efficacy of anticoagulants delivered via intratracheal (IT) inhalation, four different anticoagulants were tested in a dog study.
(§2) PK as well as biomarkers of blood in the Left Atrium (LA) and Coronary Sinus (CS) were monitored. These locations were chosen as these are the sites whereby clot formation occurs that leads to Myocardial Infarction or results in stroke.
(§3) These drugs and doses were selected to represent a wide spectrum of anticoagulant classes. One anticoagulant was tested in one dog on each arm of this study.
The standard laboratory tests commonly used to evaluate the efficacy of anticoagulants are the following:
The first test, ACT, was the key in the management of ACS. The latter three tests provided information regarding the prevention of clot formation and growth of an existing clot. The table below summarizes the measurements performed for each anticoagulant in the study.

intrinsic pathway = assay: Activated clotting time (ACT) in dog blood after IV or IT anticoagulant; type: in vivo; settings: for ACT LA: Left Atrium
Procedure: To assess the efficacy of anticoagulants delivered via intratracheal (IT) inhalation, four different anticoagulants were tested in a dog study. PK as well as biomarkers of blood in the Left Atrium (LA) and Coronary Sinus (CS) were monitored. These locations were chosen as these are the sites whereby clot formation occurs that leads to Myocardial Infarction or results in stroke. These drugs and doses were selected to represent a wide spectrum of anticoagulant classes. One anticoagulant was tested in one dog on each arm of this study. Activated clotting time (ACT), measures the time in seconds needed for whole blood to clot upon exposure to an activator of an intrinsic pathway by the addition of such as factor XII activators. Measurements were performed in the blood collected from Left Atrium (LA) and in the Coronary sinus (CS)—the targets for stroke prevention and Myocardial Infarction (MI), respectively.

intrinsic system = assay: Activated Partial Thromboplastin Time (aPTT or PTT) in dog blood after IV or IT anticoagulant; type: in vivo; settings: for PTTCS: Coronary Sinus; for PTT LA: Left Atrium
Procedure: as §1, §2, §3
(§4) Factor Xa inhibition; Prothrombin Time (PT): measures the integrity of the extrinsic system as well as factors common to both systems; and Activated Partial Thromboplastin Time (aPTT or PTT): measures the integrity of the intrinsic system and the common components and factor-Xa inhibition.
(§5) Measurements were performed in the blood collected from Left Atrium (LA) and in the Coronary sinus (CS)—the targets for stroke prevention and Myocardial Infarction (MI), respectively.

extrinsic system = assay: Prothrombin Time (PT) in dog blood after IV or IT anticoagulant; type: in vivo; settings: for PTCS: Coronary Sinus; for PT LA: Left Atrium
Procedure: as §1, §2, §3, §4, §5

[2] = cited from earlier work
[3] = IT Bivalirudin 2 mg/kg, 0 min (baseline)
[4] = IT Bivalirudin 8 mg/kg, 0 min (baseline)
[5] = IV Bivalirudin 2 mg/kg, 0 min (baseline)

Bivalirudin
effect of inhaled drug on tested biomarkers (summary) [1]: showed NO
effect on ACT (intrinsic pathway; IT (inhaled)): NO effect
effect on ACT (intrinsic pathway; IT (inhaled), listed as bivalirudin): no prolongation
ACT LA (intrinsic pathway; [3]): 90 s
ACT LA (intrinsic pathway; IT Bivalirudin 2 mg/kg, 1 min): 95 s
ACT LA (intrinsic pathway; IT Bivalirudin 2 mg/kg, 3 min): 95 s
ACT LA (intrinsic pathway; IT Bivalirudin 2 mg/kg, 5 min): 101 s
ACT LA (intrinsic pathway; IT Bivalirudin 2 mg/kg, 10 min): 101 s
ACT LA (intrinsic pathway; IT Bivalirudin 2 mg/kg, 15 min): 95 s
ACT LA (intrinsic pathway; IT Bivalirudin 2 mg/kg, 30 min): 95 s
ACT LA (intrinsic pathway; IT Bivalirudin 2 mg/kg, 60 min): 95 s
ACT LA (intrinsic pathway; [4]): 78 s
ACT LA (intrinsic pathway; IT Bivalirudin 8 mg/kg, 1 min): 95 s
ACT LA (intrinsic pathway; IT Bivalirudin 8 mg/kg, 3 min): 89 s
ACT LA (intrinsic pathway; IT Bivalirudin 8 mg/kg, 5 min): 90 s
ACT LA (intrinsic pathway; IT Bivalirudin 8 mg/kg, 10 min): 89 s
ACT LA (intrinsic pathway; IT Bivalirudin 8 mg/kg, 15 min): 90 s
ACT LA (intrinsic pathway; IT Bivalirudin 8 mg/kg, 30 min): 90 s
ACT LA (intrinsic pathway; IT Bivalirudin 8 mg/kg, 60 min): 89 s
effect on ACT (intrinsic pathway; IV): prolonged
ACT LA (intrinsic pathway; [5]): 106 s
ACT LA (intrinsic pathway; IV Bivalirudin 2 mg/kg, 1 min): 242 s
ACT LA (intrinsic pathway; IV Bivalirudin 2 mg/kg, 3 min): 214 s
ACT LA (intrinsic pathway; IV Bivalirudin 2 mg/kg, 5 min): 203 s
ACT LA (intrinsic pathway; IV Bivalirudin 2 mg/kg, 10 min): 174 s
ACT LA (intrinsic pathway; IV Bivalirudin 2 mg/kg, 15 min): 168 s
ACT LA (intrinsic pathway; IV Bivalirudin 2 mg/kg, 30 min): 135 s
ACT LA (intrinsic pathway; IV Bivalirudin 2 mg/kg, 60 min): 106 s
effect on aPTT (intrinsic system; IT (inhaled)): NO effect
PTTCS (intrinsic system; [3]): 8.4 s
PTTCS (intrinsic system; IT Bivalirudin 2 mg/kg, 3 min): 120 s
PTTCS (intrinsic system; IT Bivalirudin 2 mg/kg, 15 min): 120 s
PTTCS (intrinsic system; IT Bivalirudin 2 mg/kg, 60 min): 10.7 s
PTT LA (intrinsic system; [3]): 8.4 s
PTT LA (intrinsic system; IT Bivalirudin 2 mg/kg, 1 min): 8.3 s
PTT LA (intrinsic system; IT Bivalirudin 2 mg/kg, 3 min): 9.1 s
PTT LA (intrinsic system; IT Bivalirudin 2 mg/kg, 5 min): 8.8 s
PTT LA (intrinsic system; IT Bivalirudin 2 mg/kg, 10 min): 11.5 s
PTT LA (intrinsic system; IT Bivalirudin 2 mg/kg, 15 min): 9.4 s
PTT LA (intrinsic system; IT Bivalirudin 2 mg/kg, 30 min): 8.2 s
PTT LA (intrinsic system; IT Bivalirudin 2 mg/kg, 60 min): 11.9 s
PTTCS (intrinsic system; [4]): 12.5 s
PTTCS (intrinsic system; IT Bivalirudin 8 mg/kg, 3 min): 8.1 s
PTTCS (intrinsic system; IT Bivalirudin 8 mg/kg, 15 min): 120 s
PTTCS (intrinsic system; IT Bivalirudin 8 mg/kg, 60 min): 21.3 s
PTT LA (intrinsic system; [4]): 10.3 s
PTT LA (intrinsic system; IT Bivalirudin 8 mg/kg, 1 min): 8.4 s
PTT LA (intrinsic system; IT Bivalirudin 8 mg/kg, 3 min): 11.9 s
PTT LA (intrinsic system; IT Bivalirudin 8 mg/kg, 5 min): 11.3 s
PTT LA (intrinsic system; IT Bivalirudin 8 mg/kg, 10 min): 9.5 s
PTT LA (intrinsic system; IT Bivalirudin 8 mg/kg, 15 min): 9.6 s
PTT LA (intrinsic system; IT Bivalirudin 8 mg/kg, 30 min): 9.9 s
PTT LA (intrinsic system; IT Bivalirudin 8 mg/kg, 60 min): 13 s
effect on aPTT (intrinsic system; IV): prolonged
PTTCS (intrinsic system; [5]): 10.6 s
PTTCS (intrinsic system; IV Bivalirudin 2 mg/kg, 3 min): 35.1 s
PTTCS (intrinsic system; IV Bivalirudin 2 mg/kg, 15 min): 120 s
PTTCS (intrinsic system; IV Bivalirudin 2 mg/kg, 60 min): 120 s
PTT LA (intrinsic system; [5]): 9.7 s
PTT LA (intrinsic system; IV Bivalirudin 2 mg/kg, 1 min): 42.4 s
PTT LA (intrinsic system; IV Bivalirudin 2 mg/kg, 3 min): 36 s
PTT LA (intrinsic system; IV Bivalirudin 2 mg/kg, 5 min): 26.3 s
PTT LA (intrinsic system; IV Bivalirudin 2 mg/kg, 10 min): 23.8 s
PTT LA (intrinsic system; IV Bivalirudin 2 mg/kg, 15 min): 19.1 s
PTT LA (intrinsic system; IV Bivalirudin 2 mg/kg, 30 min): 15.7 s
PTT LA (intrinsic system; IV Bivalirudin 2 mg/kg, 60 min): 11 s
effect on PT (extrinsic system; IT (inhaled)): NO effect
PTCS (extrinsic system; [3]): 6.75 s
PTCS (extrinsic system; IT Bivalirudin 2 mg/kg, 3 min): 5.45 s
PTCS (extrinsic system; IT Bivalirudin 2 mg/kg, 15 min): 9.3 s
PTCS (extrinsic system; IT Bivalirudin 2 mg/kg, 60 min): 6.3 s
PT LA (extrinsic system; [3]): 6.1 s
PT LA (extrinsic system; IT Bivalirudin 2 mg/kg, 1 min): 6 s
PT LA (extrinsic system; IT Bivalirudin 2 mg/kg, 3 min): 5.4 s
PT LA (extrinsic system; IT Bivalirudin 2 mg/kg, 5 min): 5.8 s
PT LA (extrinsic system; IT Bivalirudin 2 mg/kg, 10 min): 6.2 s
PT LA (extrinsic system; IT Bivalirudin 2 mg/kg, 15 min): 5.7 s
PT LA (extrinsic system; IT Bivalirudin 2 mg/kg, 30 min): 5.8 s
PT LA (extrinsic system; IT Bivalirudin 2 mg/kg, 60 min): 7.2 s
PTCS (extrinsic system; [4]): 6.5 s
PTCS (extrinsic system; IT Bivalirudin 8 mg/kg, 3 min): 5.5 s
PTCS (extrinsic system; IT Bivalirudin 8 mg/kg, 15 min): 7 s
PTCS (extrinsic system; IT Bivalirudin 8 mg/kg, 60 min): 5.5 s
PT LA (extrinsic system; [4]): 6.4 s
PT LA (extrinsic system; IT Bivalirudin 8 mg/kg, 1 min): 6.1 s
PT LA (extrinsic system; IT Bivalirudin 8 mg/kg, 3 min): 6.9 s
PT LA (extrinsic system; IT Bivalirudin 8 mg/kg, 5 min): 6.3 s
PT LA (extrinsic system; IT Bivalirudin 8 mg/kg, 10 min): 7 s
PT LA (extrinsic system; IT Bivalirudin 8 mg/kg, 15 min): 6.7 s
PT LA (extrinsic system; IT Bivalirudin 8 mg/kg, 30 min): 6.6 s
PT LA (extrinsic system; IT Bivalirudin 8 mg/kg, 60 min): 5.9 s
effect on PT (extrinsic system; IV): prolonged
PTCS (extrinsic system; [5]): 5.8 s
PTCS (extrinsic system; IV Bivalirudin 2 mg/kg, 3 min): 25 s
PTCS (extrinsic system; IV Bivalirudin 2 mg/kg, 15 min): 17.2 s
PTCS (extrinsic system; IV Bivalirudin 2 mg/kg, 60 min): 6 s
PT LA (extrinsic system; [5]): 5.8 s
PT LA (extrinsic system; IV Bivalirudin 2 mg/kg, 1 min): 34.6 s
PT LA (extrinsic system; IV Bivalirudin 2 mg/kg, 3 min): 28.8 s
PT LA (extrinsic system; IV Bivalirudin 2 mg/kg, 5 min): 20.8 s
PT LA (extrinsic system; IV Bivalirudin 2 mg/kg, 10 min): 17.4 s
PT LA (extrinsic system; IV Bivalirudin 2 mg/kg, 15 min): 12.1 s
PT LA (extrinsic system; IV Bivalirudin 2 mg/kg, 30 min): 7.6 s
PT LA (extrinsic system; IV Bivalirudin 2 mg/kg, 60 min): 6.4 s
half-life ([2]; as stated in b199): 1 to 2 h
half-life ([2]; as stated in b211): 2 to 4 h
